For assay [1], the target named is T1, human NPY Y5 receptor (Homo sapiens, UniProt Q15761).
T1 construct: expressed in transfected cells
T1 sequence (Q15761 1-445): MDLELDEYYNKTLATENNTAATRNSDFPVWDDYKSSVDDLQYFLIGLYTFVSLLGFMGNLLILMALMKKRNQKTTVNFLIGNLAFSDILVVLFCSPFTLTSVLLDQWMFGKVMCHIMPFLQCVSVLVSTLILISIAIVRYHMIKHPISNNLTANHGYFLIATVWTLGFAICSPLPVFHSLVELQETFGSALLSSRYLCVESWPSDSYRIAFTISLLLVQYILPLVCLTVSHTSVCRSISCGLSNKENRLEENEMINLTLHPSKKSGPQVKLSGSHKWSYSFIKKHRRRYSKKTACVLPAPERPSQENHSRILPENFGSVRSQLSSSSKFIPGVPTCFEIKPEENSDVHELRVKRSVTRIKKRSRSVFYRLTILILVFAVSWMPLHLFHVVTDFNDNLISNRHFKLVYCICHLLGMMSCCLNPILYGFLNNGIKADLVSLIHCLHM
The experiment in a line: Affinity for NPY Y5 receptor ([125I] peptide YY binding, CHO cell membranes). Conditions: inhibition of specific [125I] peptide YY binding, membranes of CHO cells expressing NPY Y5 receptor. From the text: Experiment 1 Affinity for NPY Y5 Receptor
cDNA sequence encoding a human NPY Y5 receptor (WO096/16542) was cloned in the expression vector pME18S (Takebe et al. Mol. Cell. Biol. 8, 8957). The obtained expression vector was transfected into a host CHO cells by using a Lipofect AMINE reagent (Trademark, Gibco BRL Co., Ltd.) according to an instruction protocol to obtain the cells that stably express NPY Y5 receptor.
The membranes prepared from the above CHO cells expressing NPY Y5 receptor, the compound of the present invention and 30,000 cpm [^125I] peptide YY (60 pM of final concentration: Amersham) were incubated in the assay buffer (20 mM HEPES-Hanks buffer containing 0.1% bovine serum albumin, pH 7.4) at 25° C. for 2 hours, and then the mixture was filtered with a glassfilter GF/C treated with polyethyleneimine. After the glassfilter was washed with 50 mM Tris-HCl buffer (pH 7.4), the radioactivity on the filter was measured with a gamma counter. The non-specific binding was detected in the presence of 200 nM of peptide YY. The 50% inhibitory concentration of the test compound against the specific peptide YY binding (IC50 value) was calculated (Inui, A. et al. Endocrinology 131, 2090-2096 (1992)).

Assay [2] addresses T1, human NPY Y5 receptor. Description: cAMP production inhibitory activity in CHO cells. Format: cell-based. Particulars: against 50 nM NPY inhibition of forskolin stimulated cAMP, CHO cells expressing human NPY Y5 receptor. The procedure:
Experiment 2 cAMP production inhibitory activity in CHO cells
After CHO cells expressing human NPY Y5 receptor were incubated in the presence of 2.5 mM isobutylmethylxanthine (SIGMA) at 37° C. for 20 min., the compound of the present invention was added and incubated for 5 min. Then, 50 nM NPY and 10 μM forskolin (SIGMA) were added to the cells and incubated for 30 min. After the reaction was terminated by adding 1N HCl, the amount of cAMP in the supernatant was measured with EIA kit (Amersham LIFE SCIENCE).

`CC(C)(C)S(=O)(=O)NC1CCC(C(=O)Nc2cccc(Cl)c2)CC1` (stereo not drawn) [Ia-41]: the half-maximal inhibitory concentration (IC50) in assay [1] stood at 2.5 nM; in assay [2], 9 nM.

For `CC(C)(C)S(=O)(=O)NC1CCC(C(=O)Nc2ccc(S(=O)(=O)NC3CCCCC3)cc2)CC1` (stereo not drawn) [Ia-169], the IC50 in assay [1] worked out at 1.9 nM; in assay [2] it was 88 nM.

Consider `CC(C)(C)S(=O)(=O)NC1CCC(C(=O)Nc2ccc3ccsc3c2)CC1` (stereo not drawn) [Ia-130], for which the results for the IC50 in assay [1] and in assay [2] were 0.21 nM and 3 nM, respectively.

`CC(C)(C)NC(=O)c1ccc(NC(=O)C2CCC(NS(=O)(=O)C(C)(C)C)CC2)cc1` (stereo not drawn) [Ia-187]: the half-maximal inhibitory concentration (IC50) was found to be 1.9 nM in assay [1] and 60 nM in assay [2].

On to `CC(C)S(=O)(=O)NC1CCC(C(=O)Nc2ccc3c(c2)OCO3)CC1` (stereo not drawn) [Ia-88], for which the concentration for half-maximal inhibition (IC50) came out at 0.62 nM in assay [1] and 48 nM in assay [2].

As to `CC(C)(C)S(=O)(=O)NC1CCC(C(=O)Nc2ccc(-n3ncnn3)cc2)CC1` (stereo not drawn) [Compound I-84], the concentration for half-maximal inhibition (IC50) came to 1.3 nM in assay [1] and 25 nM in assay [2].

As for `CC(C)(C)S(=O)(=O)NC1CCC(C(=O)Nc2cccc3cc4ccccc4cc23)CC1` (stereo not drawn) [Compound I-129], the IC50 in assay [1] was 2.1 nM; in assay [2], 174 nM.

For `COC(=O)CCCc1ccc(NC(=O)C2CCC(NS(=O)(=O)C(C)(C)C)CC2)cc1` (stereo not drawn) [Compound I-87], the 50% inhibitory concentration (IC50) in assay [1] was 0.66 nM; in assay [2] it was 21 nM.

Consider `CCCCc1ccc(NC(=S)CCCCNS(=O)(=O)CC(C)C)cc1` [Compound I-114], for which the IC50 was found to be 7 nM in assay [1] and 30 nM in assay [2].

On to `CCOc1cccc(NC(=O)C2CCC(NS(=O)(=O)C(C)(C)C)CC2)c1` (stereo not drawn) [Compound I-160], for which the IC50 in assay [1] was determined as 0.61 nM; in assay [2], 8.8 nM.

With `CC(C)(C)S(=O)(=O)NC1CCC(C(=O)Nc2ccc(OCC3CC3)cc2)CC1` (stereo not drawn) [Ia-174], the IC50 in assay [1] is 0.35 nM; in assay [2], 5.4 nM.

With `CC(C)[C@@H]1CN(c2ccc(NC(=O)C3CCC(NS(=O)(=O)C(C)(C)C)CC3)cc2)CCO1` (stereo partly drawn) [Ia-47], the results for the IC50 in assay [1] and in assay [2] were 0.82 nM and 3.8 nM, respectively.

Consider `CC(C)NC(=O)c1ccc(NC(=O)c2ccc(NS(=O)(=O)C(C)(C)C)cc2)cc1` [Ia-191], for which the half-inhibitory concentration (IC50) in assay [1] was 0.49 nM; in assay [2] it was 220 nM.

As to `CC(C)S(=O)(=O)NC1CCC(C(=O)Nc2ccc(OC3CCCC3)cc2)CC1` (stereo not drawn) [Ia-198], the 50% inhibitory concentration (IC50) was 0.23 nM in assay [1] and 2.6 nM in assay [2].

For `CC(C)(C)S(=O)(=O)NCCCCC(=O)Nc1ccc(N2CCC(O)(c3ccc(Cl)cc3)CC2)cc1` [Ia-85], the IC50 was 0.22 nM in assay [1] and 14 nM in assay [2].

As to `CCCCc1ccc(NC(=O)c2ccc(N[S+]([O-])C(C)(C)C)cc2)cc1` (stereo not drawn) [Compound I-101], the results for the IC50 in assay [1] and in assay [2] were 3.9 nM and 38 nM, respectively.

Consider `CCC(C)NC(=O)c1ccc(NC(=O)C2CCC(NS(=O)(=O)C(C)(C)C)CC2)cc1` (stereo not drawn) [Ia-188], for which the figures for the IC50 in assay [1] and in assay [2] were 0.75 nM and 28 nM, respectively.

As to `CC(C)NC(=O)c1cccc(NC(=O)c2ccc(NS(=O)(=O)C(C)(C)C)cc2)c1` [Ia-132], the IC50 stood at 2.8 nM in assay [1] and 76 nM in assay [2].

For the molecule `CC(=O)c1cc2cc(NC(=O)C3CCC(NS(=O)(=O)C(C)(C)C)CC3)ccc2oc1=O` (stereo not drawn) [Ia-60], the results for the IC50 in assay [1] and in assay [2] were 0.95 nM and 10 nM, respectively.

Regarding `COC(=O)c1scc(NC(=O)C2CCC(NS(=O)(=O)C(C)(C)C)CC2)c1C(=O)OC` (stereo not drawn) [Compound I-143], the figures for the IC50 in assay [1] and in assay [2] were 3.5 nM and 44 nM, respectively.

`CC(C)(C)S(=O)(=O)NC1CCC(C(=O)Nc2ccc(-c3cnco3)cc2)CC1` (stereo not drawn) [Ia-195]: the IC50 in assay [1] was found to be 1.4 nM; in assay [2], 31 nM.

As for `CC(C)(C)S(=O)(=O)NC1CCC(C(=O)Nc2ccc3c(c2)CCC3=NO)CC1` (stereo not drawn) [Compound I-198], the concentration for half-maximal inhibition (IC50) was 7.2 nM in assay [1] and 33 nM in assay [2].

Take `CC(C)S(=O)(=O)NCCCCC(=O)Nc1ccc(N2CCC(O)(c3ccc(Cl)cc3)CC2)cc1` [Ia-86]: the figures for the IC50 in assay [1] and in assay [2] were 0.73 nM and 11 nM, respectively.

For the molecule `CCCCc1ccc(C(=O)NCCCCNS(=O)(=O)C(C)(C)C)cc1` [Compound I-20], the half-maximal inhibitory concentration (IC50) stood at 7 nM in assay [1] and 21 nM in assay [2].

As for `CCCCOc1ccc(NC(=O)C2CCC(NS(=O)(=O)C(C)(C)C)CC2)c([N+](=O)[O-])c1` (stereo not drawn) [Compound I-171], the IC50 in assay [1] is 2.4 nM; in assay [2], 71 nM.

On to `CC(C)(C)S(=O)(=O)NC1CCC(C(=O)Nc2ccc(NS(=O)(=O)c3ccccc3)cc2)CC1` (stereo not drawn) [Ia-64], for which the values for the IC50 in assay [1] and in assay [2] were 7.1 nM and 96 nM, respectively.

As for `CC(C)(C)S(=O)(=O)Nc1ccc(C(=O)Nc2ccc(-c3cccs3)cc2)cc1` [Ia-213], the figures for the IC50 in assay [1] and in assay [2] were 0.91 nM and 28 nM, respectively.

For the molecule `CC(C)(C)S(=O)(=O)NC1CCN(C(=O)Nc2ccc(OC3CCOCC3)cc2)CC1` [Ia-225], the values for the IC50 in assay [1] and in assay [2] were 3.4 nM and 20 nM, respectively.

For the molecule `CCCCOc1ccc(NC(=O)C2CCC(NS(=O)(=O)C(C)(C)C)CC2)cc1` (stereo not drawn) [Compound I-164], the concentration for half-maximal inhibition (IC50) in assay [1] is 0.71 nM; in assay [2], 5.9 nM.

In the case of `C[C@@H]1CN(c2ccc(NC(=O)C3CCC(NS(=O)(=O)C(C)(C)C)CC3)cc2)C[C@@H](C)O1` (stereo partly drawn) [Ia-42], the IC50 in assay [1] turned out to be 3.6 nM; in assay [2], 20 nM.

Turning to `CC(C)(C)S(=O)(=O)NC1CCC(C(=O)Nc2cccc(N3CCOCC3)c2)CC1` (stereo not drawn) [Compound I-199], the IC50 in assay [1] was 4.8 nM; in assay [2], 31 nM.

As to `CSc1sc(C(=O)NNC(=O)C2CCC(NS(=O)(=O)C(C)(C)C)CC2)c2c1C(O)CCC2` (stereo not drawn) [Compound I-153], the results for the IC50 in assay [1] and in assay [2] were 1.7 nM and 29 nM, respectively.

Take `CC(C)(C)c1ccc(NC(=O)C2CCC(NS(=O)(=O)C(C)(C)C)CC2)cc1` (stereo not drawn) [Ia-13]: the IC50 is 1.5 nM in assay [1] and 3.3 nM in assay [2].

On to `CCC1(CC)CN(c2ccc(NC(=O)C3CCC(NS(=O)(=O)C(C)(C)C)CC3)cc2)CCO1` (stereo not drawn) [Ia-48], for which the IC50 in assay [1] came out at 1.2 nM; in assay [2], 6.1 nM.

Turning to `CC(C)S(=O)(=O)NC1CCC(C(=O)Nc2cccc(OCC3CC3)c2)CC1` (stereo not drawn) [Ia-197], the values for the IC50 in assay [1] and in assay [2] were 0.44 nM and 2.5 nM, respectively.

As for `CC(C)S(=O)(=O)NC1CCC(C(=O)Nc2ccc(N3CCC(O)(c4ccc(Cl)cc4)CC3)cc2)CC1` (stereo not drawn) [Ia-84], the IC50 was 0.25 nM in assay [1] and 13 nM in assay [2].

Regarding `CC(C)(C)S(=O)(=O)NC1CCC(C(=O)Nc2ccc(N3CCCCC3=O)cc2)CC1` (stereo not drawn) [Ia-173], the values for the half-inhibitory concentration (IC50) in assay [1] and in assay [2] were 6.9 nM and 140 nM, respectively.

For the molecule `CC(C)(C)S(=O)(=O)NC1CCC(C(=O)NCCSCc2c(F)cccc2Cl)CC1` (stereo not drawn) [Compound I-151], the IC50 in assay [1] was found to be 0.17 nM; in assay [2], 2.6 nM.

As to `CC(C)c1ccc(NC(=O)C2CCC(NS(=O)(=O)C(C)(C)C)CC2)cc1` (stereo not drawn) [Ia-11], the values for the IC50 in assay [1] and in assay [2] were 0.64 nM and 7.2 nM, respectively.

Turning to `CC(C)NS(=O)(=O)c1cccc(NC(=O)C2CCC(NS(=O)(=O)C(C)(C)C)CC2)c1` (stereo not drawn) [Ia-181], the IC50 in assay [1] worked out at 7.7 nM; in assay [2], 25 nM.

Regarding `CC(C)(C)S(=O)(=O)NC1CCC(C(=O)Nc2ccc(-n3cccn3)cc2)CC1` (stereo not drawn) [Compound I-77], the IC50 in assay [1] is 1.8 nM; in assay [2] it was 28 nM.

With `CC(C)(C)S(=O)(=O)NC1CCC(C(=O)Nc2ccc(-c3ccc(N4CCCCC4)cc3)cc2)CC1` (stereo not drawn) [Compound I-65], the results for the IC50 in assay [1] and in assay [2] were 1.8 nM and 72 nM, respectively.

Values taken from US7265130B2, “NPY Y5 antagonist” (Shionogi & Co., Ltd., priority 1999, dated 2007).
